In US20240382487A1, “NOVEL COPI/ARF1-LIPOLYSIS PATHWAY INHIBITOR AND COMPOUND FOR ERADICATING CANCER STEM CELLS AND INDUCING DAMP-MEDIATED ANTI-TUMOR IMMUNE RESPONSE” (FUDAN UNIVERSITY, priority 2020, published 2024):
Where two headings read alike, the source gives them in different places.

How the values were obtained:
[1] = system: chemokines and T cell activation markers; assay: Chemokines and T cell activation markers by quantitative RT-PCR in MYC-ON mice; format: in vivo
Method: Chemokines and T cell activation markers were measured by quantitative RT-PCR in DMSO or du102 treated MYC-ON mice. CD8 T cell infiltration and immunostimulatory cytokine expression were increased as measured by quantitative RT-PCR. […] CCL5 and CXCL10 chemokines stimulate CD4+ and CD8+ lymphocytes tumor infiltration (Parkes et al., 2017), and CXCL10 and CXCL11 are T cell associated chemokines.

[2] = system: colorectal cancer cell line HT29; assay: In vitro cell line screening, HT29; format: cell-based
Text: (§1) In different tumor cytotoxicity experiments in vitro (FIG. 2-FIG. 7), including colorectal cancer cell lines HT29 and LoVo cells, liver cancer cell Huh7, lung cancer cells H460 and A549, the arf1 inhibitor could all inhibit tumor cell growth (FIG. 2-FIG. 6), and there was a dose-dependent manner (FIG. 7).

[3] = system: tumor cells; assay: Tumor cytotoxicity experiments in vitro (all lines, general statements); format: cell-based; conditions: HT29, LoVo, Huh7, H460, A549; FIG. 2-7
Text: as §1

[4] = system: liver cancer cell Huh7; assay: In vitro cell line screening, Huh7; format: cell-based
Text: as §1

[5] = system: lung cancer cells A549; assay: In vitro cell line screening, A549; format: cell-based
Text: as §1

[6] = system: mice; assay: Toxicity in mice, oral gavage; format: in vivo; conditions: mouse, in vivo, po
[7] = system: INFγ; assay: IFN-γ assay, CD11c+ DC and CD8+ T cells co-cultured with treated CT26 cells; format: cell-based; conditions: CT-26 colon cancer model, BALB/c mice; co-culture 2 days
Method: (§2) For IL-1 β Assay: seven days after CT26 cell lysate injection. CD11c+DCs were isolated from injected BALB/c mice and co cultured with CT26 cells treated with DMSO or du102. After 2 days, […] was measured in harvested cells (Table 11). For the IFN-y assay: CD11c^+ DC and CD8^+ T cells were isolated from injected BALB/c mice 7 days after CT26 cell lysate injection and co cultured with CT26 cells treated with DMSO or du102. After 2 days. IFN-y was measured in harvested cells (table 11).

[8] = system: CT-26 colon carcinoma; assay: Drug-treated CT-26 cells in athymic nude mice; format: in vivo; parameters: unit not given here; conditions: cells treated with 10 μM Du 102
Method: The immunogenicity of the reagents can be tested in mouse vaccination models (Obeid et al., 2007; Sagiv barfi et al., 2018). One flank of the mouse was injected with drug treated tumor cells, followed one week later by a second injection of syngeneic tumor cells. We tested the vaccine efficacy in CT-26 colon cancer, B16-F10 melanoma, and 4T1 breast cancer treated with DMSO or du102.
Cells will be treated with 10 μM Du 102 or DMSO treated CT26, 4T1 and B16-F10 tumor cells (5×10^5\1×10^5 and 5×10^5, respectively) were subcutaneously inoculated into 6-week-old female mice. After 7 days, equal amounts of corresponding tumor cells were seeded to the right side. Tumor cell lines were mixed with Matrigel (GIBCO, cat s̆ 354234) or resuspended in PBS and injected subcutaneously or intradermally.

[9] = system: IL-1β; assay: IL-1β induction, B16-F10 melanoma model; format: cell-based; conditions: B16-F10 melanoma model in C57B/6 mice
Text: Example 7. Dulo2 Treatment Induces IL-1 in B16-F10 Melanoma of C57B/6 Mice. (Table 12)

[10] = system: IL-1β; assay: IL-1β assay, CD11c+ DCs co-cultured with treated CT26 cells; format: cell-based; conditions: CT-26 colon cancer model, BALB/c mice; co-culture 2 days
Method: as §2

[11] = system: Drosophila stem cell tumors; assay: Drosophila screen (stem cell / intestinal tumors); format: in vivo
Text: (§3) We tested 10 reported Arf1 inhibitors (Bill et al., 2011; Boal et al., 2010; Feng et al., 2004; Newton et al., 2006; Ohashi et al., 2012; Sáenz et al., 2009; Sorieul et al., 2011; Viaud et al., 2007), including brefeldin A (BFA), Golgicide A (GCA), LM11, Secin16, Secin H3, Secin B7, Exo1, Exo2, LG8, and LG18, on Drosophila stem cell tumors and normal human bone marrow hematopoietic stem cells (HSCs).

[12] = system: B16-F10 melanoma; assay: Lung metastasis of B16-F10 melanoma after tail vein injection; format: in vivo, C57B/6 mice; conditions: B16-F10 cells treated with 10 μM Du 102, tail vein injection; lungs removed 15 days after injection
Method: B16-f10 tumor cells (treated with DMSO or 10 μM Du 102 treatment) was transferred intravenously via tail vein injection. Lungs were removed 15 days after injection and fixed in fekete's solution overnight. Three investigators in a blinded manner statistically available (Table 17).

[13] = system: T cell activation markers; assay: T cell activation markers, 4T1 breast carcinoma in BALB/c mice; format: in vivo; conditions: DMSO 1.0
Text: Example 10. Du 102 Treatment Induces the Expression of T Cell Activation Markers of 4T1 Breast Cancer in BALB/c Mice

[14] = system: normal human bone marrow hematopoietic stem cells (HSCs)
Text: as §3

[15] = system: lung cancer cells H460; assay: In vitro cell line screening, H460; format: cell-based
Text: as §1

[16] = system: CT-26 colon cancer; assay: Vaccination model, drug-treated CT-26 cells in BALB/c mice; format: in vivo; parameters: tumor size, left side with drug treatment / tumors on right side after vaccination on left side: unit not given here; conditions: CT-26, BALB/c mice; for tumor size, left side with drug treatment: cells treated with 10 μM Du 102; for tumors on right side after vaccination on left side: untreated cells re-challenge

1H-indolo-5-carbaldehyde 5,6,7,8,9,10-hexahydrocycloocta[4,5]thieno[2,3-d]pyrimidin-4-ylhydrazone [Du 102]
Ccl5 expression ([1]; DMSO 1.0): 2.4
Col22 expression ([1]; DMSO 1.0): 2.5
Cxcl11 expression ([1]; DMSO 1.0): 2.8
GzmA expression ([1]; DMSO 1.0): 2.3
GzmB expression ([1]; DMSO 1.0): 1.9
IL-1β expression ([1]; DMSO 1.0): 2.5
PD-L1 expression ([1]; DMSO 1.0): 0.4
Perforin expression ([1]; DMSO 1.0): 2.2
Cxcl10 expression ([1]; DMSO 1.1): 3.1
INFγ expression ([1]; DMSO 1.1): 3.2
tumor suppressive effect [2]: some tumor suppressive effect
tumor suppressive effect ([2]; listed as Dul02): effective tumor suppressive effects
tumor suppressive / inhibitory effect on tumor cells [3]: Some Tumor Suppressive Effect
tumor suppressive effect [4]: Tumor suppression effect
tumor suppressive effect ([4]; listed as Dul02): effective tumor suppressive effects
tumor suppressive effect [5]: potency tumor suppressive effect
tumor suppressive effect ([5]; listed as Dul02): effective tumor suppressive effects
toxic effects [6]: no toxic effects were observed
INFγ [7]: 623
CT-26 colon carcinoma tumor in Athymic mice ([8]; Day 0): 0
CT-26 colon carcinoma tumor in Athymic mice ([8]; Day 5): 0
CT-26 colon carcinoma tumor in Athymic mice ([8]; Day 10): 15
CT-26 colon carcinoma tumor in Athymic mice ([8]; Day 15): 117
CT-26 colon carcinoma tumor in Athymic mice ([8]; Day 20): 417
CT-26 colon carcinoma tumor in Athymic mice ([8]; Day 25): 859
IL-1β [9]: 952
IL-1β [10]: 954
in vivo tumor suppressive effects ([11]; Drosophila screen, FIG. 8): good in vivo tumor suppressive effects
killing Drosophila stem cell tumors ([11]; in vivo): effective
lung metastases (surface tumor number) [12]: 5
Gzm8 expression [13]: 2.3
GzmA expression [13]: 2.2
IL-1β expression [13]: 2.2
INFγ expression [13]: 2.1
PD-L1 expression [13]: 0.5
Perforin expression [13]: 2.5
toxicity (killing normal HSCs) [14]: relatively low toxicity
tumor suppressive effect [15]: potency tumor suppressive effect
tumor suppressive effect ([15]; listed as Dul02): effective tumor suppressive effects
regression of both left- and right-sided tumours ([16]; tables 3 and 4): almost complete regression
tumor size, left side with drug treatment ([16]; Day 0): 0
tumors on right side after vaccination on left side ([16]; Day 0): 0
tumor size, left side with drug treatment ([16]; Day 5): 0
tumors on right side after vaccination on left side ([16]; Day 5): 0
tumor size, left side with drug treatment ([16]; Day 10): 2
tumors on right side after vaccination on left side ([16]; Day 10): 0
tumor size, left side with drug treatment ([16]; Day 15): 8
tumor size, left side with drug treatment ([16]; Day 20): 57
tumors on right side after vaccination on left side ([16]; Day 20): 3.7
tumor size, left side with drug treatment ([16]; Day 25): 81
tumors on right side after vaccination on left side ([16]; Day 25): 7.6
tumor size, left side with drug treatment ([16]; Day 30): 178
tumors on right side after vaccination on left side ([16]; Day 30): 14.1
